# Results filed as inconclusive are left out.
# Test system: nude mice, LX-1 lung xenograft intrarenal, tumor weight T/C
# Experiment: NCI In Vivo Anticancer Drug Screen. Data for tumor model Human Lung LX-1 Xenograft (intrarenal inoculation) in NU/NU Swiss (nude) mice
# Settings: endpoint: mean tumor weight change, higher = larger tumour
# Description: The antitumor activity of compounds was measured in mice bearing transplantable tumors. Survival or tumor size were measured and the results are expressed as the measurement made in the treated group (T) divided by the measurement made in the vehicle treated control group (C). The tumor model used in this assay is Human Lung LX-1 Xenograft (intrarenal inoculation) in NU/NU Swiss (nude) mice
# [1] = dose: 300.0 mg/kg/injection, schedule: Q04DX003 (sc), vehicle: suspension in saline
# [2] = dose: 25.0 mg/kg/injection, schedule: Q01DX010 (sc), vehicle: saline with Tween-80
# [3] = dose: 50.0 mg/kg/injection, schedule: Q01DX010 (sc), vehicle: saline with Tween-80
smiles,measurement,setting,value
O=C1c2ccccc2C(=O)c2c3c(cc(NCCNCCO)c21)N(CCO)CCN3,T/C,"dose: 200.0 mg/kg/injection, schedule: Q04DX003 (sc), vehicle: DMSO",122 % of control
same,T/C,"dose: 400.0 mg/kg/injection, schedule: Q04DX003 (sc), vehicle: DMSO",86 % of control
same,T/C,"dose: 800.0 mg/kg/injection, schedule: Q04DX003 (sc), vehicle: DMSO",83 % of control
O=C(O)CC(NC(=O)CP(=O)(O)O)C(=O)O.[NH-]C1CCCCC1[NH-].[Pt+2] (centres undefined),T/C,"dose: 6.25 mg/kg/injection, schedule: Q04DX003 (sc), vehicle: dextrose",86 % of control
same,T/C,"dose: 12.5 mg/kg/injection, schedule: Q04DX003 (sc), vehicle: dextrose",72 % of control
same,T/C,"dose: 25.0 mg/kg/injection, schedule: Q04DX003 (sc), vehicle: dextrose",54 % of control
COC1C(/C=C/C(C)=O)OC2OC(C)(C)OC21 (centres undefined),T/C,"dose: 75.0 mg/kg/injection, schedule: Q04DX003 (sc), vehicle: suspension in saline",52 % of control
same,T/C,"dose: 150.0 mg/kg/injection, schedule: Q04DX003 (sc), vehicle: suspension in saline",158 % of control
same,T/C,[1],123 % of control
N/C(=N\O)c1cn(C2OC(CO)C(O)C2O)c2ncnc(N)c12 (centres undefined),T/C,"dose: 2.5 mg/kg/injection, schedule: Q04DX003 (sc), vehicle: Klucel (hydroxypropylcellulose) (HPC)",95 % of control
same,T/C,"dose: 5.0 mg/kg/injection, schedule: Q04DX003 (sc), vehicle: Klucel (hydroxypropylcellulose) (HPC)",99 % of control
same,T/C,"dose: 10.0 mg/kg/injection, schedule: Q04DX003 (sc), vehicle: Klucel (hydroxypropylcellulose) (HPC)",81 % of control
same,T/C,"dose: 20.0 mg/kg/injection, schedule: Q04DX003 (sc), vehicle: Klucel (hydroxypropylcellulose) (HPC)",44 % of control
C1CCC2[N-]CC3CCCCC3[N-]CC3CCCCC3[N-]CC3CCCCC3[N-]CC2C1.[Cu] (centres undefined),T/C,"dose: 6.25 mg/kg/injection, schedule: Q01DX010 (sc), vehicle: Klucel (hydroxypropylcellulose) (HPC)",100 % of control
same,T/C,"dose: 12.5 mg/kg/injection, schedule: Q01DX010 (sc), vehicle: Klucel (hydroxypropylcellulose) (HPC)",87 % of control
same,T/C,"dose: 25.0 mg/kg/injection, schedule: Q01DX010 (sc), vehicle: Klucel (hydroxypropylcellulose) (HPC)",51 % of control
CNNCc1ccc(C(=O)NC(C)C)cc1,T/C,"dose: 166.66 mg/kg/injection, schedule: Q04DX003 (ip), vehicle: saline",-73 % of control
same,T/C,"dose: 333.33 mg/kg/injection, schedule: Q04DX003 (ip), vehicle: saline",-64 % of control
same,T/C,"dose: 666.65 mg/kg/injection, schedule: Q04DX003 (ip), vehicle: saline",-73 % of control
CC[PH+](CC)CC[S-].CC[PH+](CC)CC[S-].[Au+].[Au+],T/C,"dose: 40.0 mg/kg/injection, schedule: Q04DX003 (sc), vehicle: Klucel (hydroxypropylcellulose) (HPC)",105 % of control
same,T/C,"dose: 160.0 mg/kg/injection, schedule: Q04DX003 (sc), vehicle: Klucel (hydroxypropylcellulose) (HPC)",105 % of control
same,T/C,"dose: 320.0 mg/kg/injection, schedule: Q04DX003 (sc), vehicle: Klucel (hydroxypropylcellulose) (HPC)",96 % of control
CC(=O)C1=C(O)C2(O)C(=O)c3c(c(C)c4ccc(C)c(O)c4c3O)CC2C(N)C1=O (centres undefined),T/C,"dose: 50.0 mg/kg/injection, schedule: Q04DX003 (sc), vehicle: saline",107 % of control
same,T/C,"dose: 100.0 mg/kg/injection, schedule: Q04DX003 (sc), vehicle: saline",110 % of control
same,T/C,"dose: 200.0 mg/kg/injection, schedule: Q04DX003 (sc), vehicle: saline",61 % of control
same,T/C,"dose: 400.0 mg/kg/injection, schedule: Q04DX003 (sc), vehicle: saline",51 % of control
CNc1n[n+](-c2ccccc2)no1,T/C,"dose: 37.5 mg/kg/injection, schedule: Q04DX003 (sc), vehicle: water",98 % of control
same,T/C,"dose: 75.0 mg/kg/injection, schedule: Q04DX003 (sc), vehicle: water",92 % of control
O=c1cc(CCl)[nH]nc1CCl,T/C,"dose: 6.25 mg/kg/injection, schedule: Q01DX010 (sc), vehicle: saline with Tween-80",92 % of control
same,T/C,"dose: 12.5 mg/kg/injection, schedule: Q01DX010 (sc), vehicle: saline with Tween-80",55 % of control
same,T/C,[2],49 % of control
same,T/C,[3],106 % of control
CCN1C=C/C(=C\C=C/c2cc[n+](CC)c3ccccc23)c2ccccc21,T/C,"dose: 0.25 mg/kg/injection, schedule: Q01DX010 (sc), vehicle: saline",195 % of control
CC(C)NC(=O)OCc1c(COC(=O)NC(C)C)c(-c2ccc(Cl)c(Cl)c2)n2c1CCC2,T/C,"dose: 25.0 mg/kg/injection, schedule: Q01DX010 (sc), vehicle: distilled water + Tween-80",27 % of control
same,T/C,"dose: 200.0 mg/kg/injection, schedule: Q04DX003 (sc), vehicle: distilled water + Tween-80",68 % of control
same,T/C,"dose: 400.0 mg/kg/injection, schedule: Q04DX003 (sc), vehicle: distilled water + Tween-80",50 % of control
same,T/C,"dose: 800.0 mg/kg/injection, schedule: Q04DX003 (sc), vehicle: distilled water + Tween-80",40 % of control
same,T/C,"dose: 1600.0 mg/kg/injection, schedule: Q04DX003 (sc), vehicle: distilled water + Tween-80",90 % of control
CC[n+]1c(-c2ccccc2)c2cc(N)ccc2c2ccc(N)cc21,T/C,"dose: 15.0 mg/kg/injection, schedule: Q04DX003 (sc), vehicle: saline",80 % of control
same,T/C,"dose: 30.0 mg/kg/injection, schedule: Q04DX003 (sc), vehicle: saline",81 % of control
same,T/C,"dose: 60.0 mg/kg/injection, schedule: Q04DX003 (sc), vehicle: saline",33 % of control
Clc1ccc(C2SC=Cc3ccccc32)cc1 (centres undefined),T/C,"dose: 300.0 mg/kg/injection, schedule: Q04DX003 (sc), vehicle: Klucel (hydroxypropylcellulose) (HPC)",64 % of control
same,T/C,"dose: 600.0 mg/kg/injection, schedule: Q04DX003 (sc), vehicle: Klucel (hydroxypropylcellulose) (HPC)",47 % of control
same,T/C,"dose: 1200.0 mg/kg/injection, schedule: Q04DX003 (sc), vehicle: Klucel (hydroxypropylcellulose) (HPC)",106 % of control
Nc1nc(N)c2c(Cl)c(CNc3ccc(Cl)c(Cl)c3)ccc2n1,T/C,[2],111 % of control
CC(=O)OCC1OC(n2ccc(N)nc2=O)C(OC(C)=O)C1OC(C)=O (centres undefined),T/C,[1],156 % of control
same,T/C,"dose: 600.0 mg/kg/injection, schedule: Q04DX003 (sc), vehicle: suspension in saline",84 % of control
same,T/C,"dose: 1200.0 mg/kg/injection, schedule: Q04DX003 (sc), vehicle: suspension in saline",23 % of control
same,T/C,"dose: 2400.0 mg/kg/injection, schedule: Q04DX003 (sc), vehicle: suspension in saline",94 % of control
C[C@]12CC[C@H](O)CC1=CC[C@@H]1[C@@H]2CC[C@]2(C)C(=O)CC[C@@H]12,T/C,"dose: 150.0 mg/kg/injection, schedule: Q04DX003 (sc), vehicle: saline with Tween-80",116 % of control
same,T/C,"dose: 300.0 mg/kg/injection, schedule: Q04DX003 (sc), vehicle: saline with Tween-80",115 % of control
same,T/C,"dose: 1200.0 mg/kg/injection, schedule: Q04DX003 (sc), vehicle: saline with Tween-80",107 % of control
O=C1C=CC(=O)N1c1ccc(Cl)cc1,T/C,"dose: 37.5 mg/kg/injection, schedule: Q04DX003 (sc), vehicle: Klucel (hydroxypropylcellulose) (HPC)",116 % of control
same,T/C,"dose: 75.0 mg/kg/injection, schedule: Q04DX003 (sc), vehicle: Klucel (hydroxypropylcellulose) (HPC)",123 % of control
same,T/C,"dose: 150.0 mg/kg/injection, schedule: Q04DX003 (sc), vehicle: Klucel (hydroxypropylcellulose) (HPC)",85 % of control
N#CC(=C1SCS1)[N+](=O)[O-],T/C,"dose: 6.0 mg/kg/injection, schedule: Q04DX003 (sc), vehicle: saline",79 % of control
same,T/C,"dose: 12.0 mg/kg/injection, schedule: Q04DX003 (sc), vehicle: saline",103 % of control
same,T/C,"dose: 24.0 mg/kg/injection, schedule: Q04DX003 (sc), vehicle: saline",109 % of control
same,T/C,"dose: 48.0 mg/kg/injection, schedule: Q04DX003 (sc), vehicle: saline",94 % of control
CCCCN(CCCC)C(Cl)=Nc1ccccc1,T/C,"dose: 400.0 mg/kg/injection, schedule: Q04DX003 (sc), vehicle: other",116 % of control
O=C1N(Cl)C(=O)C(c2ccc(Cl)cc2)(c2ccc(Cl)cc2)N1Cl,T/C,[3],98 % of control
same,T/C,"dose: 200.0 mg/kg/injection, schedule: Q01DX010 (sc), vehicle: saline with Tween-80",57 % of control
same,T/C,"dose: 400.0 mg/kg/injection, schedule: Q01DX010 (sc), vehicle: saline with Tween-80",118 % of control
O=c1[nH]c(=O)n(C2OC(CO)C(O)C2O)cc1F (centres undefined),T/C,"dose: 9.37 mg/kg/injection, schedule: Q04DX003 (sc), vehicle: saline",77 % of control
same,T/C,"dose: 18.75 mg/kg/injection, schedule: Q04DX003 (sc), vehicle: saline",26 % of control
O=C1NC(=O)C2C3C=CC(C12)C1C2C(=O)NC(=O)C2C31 (centres undefined),T/C,"dose: 100.0 mg/kg/injection, schedule: Q04DX003 (sc), vehicle: saline with Tween-80",123 % of control
same,T/C,"dose: 400.0 mg/kg/injection, schedule: Q04DX003 (sc), vehicle: saline with Tween-80",84 % of control
same,T/C,"dose: 800.0 mg/kg/injection, schedule: Q04DX003 (sc), vehicle: saline with Tween-80",75 % of control
same,T/C,"dose: 1600.0 mg/kg/injection, schedule: Q04DX003 (sc), vehicle: saline with Tween-80",105 % of control
